{"source": "patent US20030065015A1", "about": "(priority 2001, published 2003)", "key": {"[1]": {"format": "physicochemical", "settings": "pH 0"}, "[2]": {"settings": "pH=6"}, "[3]": {"assay": "physchem", "settings": "pH 6"}}, "note": "“And” between values parts separate entries of the source, which are not always exact repeats. Identical values can stand only once.", "data": [{"smiles": "CN(C)C(=O)Oc1ccc[n+](C)c1.[Br-]", "note": "[Pyridostigmine Bromide, 3-dimethylaminocarbonyloxy-N-methylpyridinium bromide]", "values": [{"measurement": "Ko/a", "setting": "[1]", "value": "1.9 × 10^−3 and 2.3 × 10^−2 and 2.0 × 10^−2"}]}, {"smiles": "C[n+]1ccccc1/C=N/O", "note": "[2-PAM chloride, 2-[(hydroxyimino)methyl]-1-methylpyrdinium chloride]", "values": [{"measurement": "partition coefficient", "setting": "[2]", "value": 0.79}, {"measurement": "logD", "setting": "[3]", "value": -3.12}]}]}
